{"source": "paper PMC8347595", "about": "“N-Skatyltryptamines—Dual 5-HT6R/D2R Ligands with Antipsychotic and Procognitive Potential” (Molecules, 2021)", "key": {"in vitro": {"test": "in vitro", "details": "PAMPA, pH 7.4"}, "D2R": {"biological_target": "D2R (Homo sapiens, UniProt P14416)", "sequence (P14416 whole entry)": "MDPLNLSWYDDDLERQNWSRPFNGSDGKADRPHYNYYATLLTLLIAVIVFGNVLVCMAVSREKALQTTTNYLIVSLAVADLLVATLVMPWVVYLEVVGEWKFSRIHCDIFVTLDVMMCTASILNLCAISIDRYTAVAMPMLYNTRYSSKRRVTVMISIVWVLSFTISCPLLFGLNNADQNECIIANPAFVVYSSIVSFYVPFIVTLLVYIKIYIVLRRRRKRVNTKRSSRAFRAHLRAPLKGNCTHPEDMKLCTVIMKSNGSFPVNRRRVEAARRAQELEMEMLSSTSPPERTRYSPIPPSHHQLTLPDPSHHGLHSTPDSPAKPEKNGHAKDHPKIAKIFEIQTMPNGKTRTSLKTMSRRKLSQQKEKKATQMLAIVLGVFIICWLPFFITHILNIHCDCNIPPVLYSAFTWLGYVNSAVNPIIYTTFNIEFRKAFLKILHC", "test": "Radioligand binding assay, [3H]-raclopride displacement"}, "Male CD1 mice [1]": {"tested_on": "Male CD1 mice", "test": "MK-801-induced hyperactivity in mice", "assay_type": "in vivo", "details": "i.p.; for reversal of MK-801-elevated activity: MK-801 0.35 mg/kg, 15: 0.5, 1, 3 mg/kg, 18: 0.05-3 mg/kg", "experimental": "(§1) Animals. Male CD1 mice (Charles River, Germany) weighing 20–25 g at the time of arrival were used in behavioral experiments. Animals were kept under standard laboratory conditions (12:12 light: dark cycle, 22 ± 2 °C) with free access to food and water. Animal welfare has been regularly controlled by a veterinarian and animal welfare committee. After two weeks of acclimatization and handling, the experiments began. Experimental groups consisted of four to 10 animals, depending on the procedure. Drugs were administered intraperitoneally (i.p.) at a volume of 10 mL/kg. Experimental assessments were performed by an observer who was blinded to the treatment conditions. All procedures were conducted in accordance with the European Communities Council Directive of 22 September 2010 (2010/63/EU) and Polish legislation acts concerning animal experimentation and were approved by the II Local Ethics Committee by the Maj Institute of Pharmacology, Polish Academy of Sciences in Krakow (272/2019).\n(§2) Drugs. MK-801 was purchased from Tocris Bioscience, Bristol, UK. MK-801 was dissolved in 0.9% NaCl. Compounds 15 and 18 were dissolved in 0.9% NaCl. All compounds were administered intraperitoneally (i.p.) in a volume of 10 mL/kg. Vehicle-treated animals received appropriate solvents. Vehicle was administered to animals in any case when drug administration was omitted (e.g., control or MK-801-treated groups).\nThe locomotor activity was recorded individually for each animal in locomotor activity cages (according to Rorick-Kehn et al., 2007a,b), with modifications (Wieronska et al., 2012). The mice were placed individually into activity cages (13 × 23 × 15 cm; Opto-M3; Columbus Instruments) for an acclimatization period of 30 min; then they were injected i.p. with compound 15 (0.5, 1, 3 mg/kg) or compound 18 (0.05, 0.1, 0.5, 1, 3 mg/kg) and placed again in the same cages. After 30 min, all of the mice were injected i.p. with MK-801 at 0.35 mg/kg and once again placed in the same cage. From then on, the ambulation scores were counted for 60 min. All of the groups were compared with the MK-801 control group. […]"}, "[2]": {"test": "Metabolic stability, incubation with mouse liver microsomes", "assay_type": "in vitro ADME", "details": "MLMs, 50 µM, 2 h", "experimental": "The murine liver microsomes (MLMs) were purchased from Sigma-Aldrich (St. Louis, MO, USA). To determine metabolic pathways, the tested compounds (50 µM) were incubated with 100 mM Tris-HCl buffer at 37 °C with MLMs (1 mg/mL) and NADPH Regeneration System for 2 h. Reactions were quenched with cold, pure methanol and mixtures were centrifuged 14,000 g for 15 min. The supernatants were analyzed using LCMS. The additional MS ion fragmentation of the product and the substrate were performed to determine the most probable structure of the metabolite."}, "Male CD1 mice [3]": {"tested_on": "Male CD1 mice", "test": "Spontaneous locomotor activity of mice", "assay_type": "in vivo", "details": "i.p.; for Ambulation Scores ± SEM: 60 min, n = 5; for effect on spontaneous locomotor activity in words: all tested doses", "experimental": "Mice were placed separately into activity cages for an acclimatization period of 30 min, then they were injected i.p. with compound 15 (0.5, 1, and 3 mg/kg) or compound 18 (0.05, 0.1, 0.5, 1, and 3 mg/kg, respectively. After a further 30 min, they were injected with saline (10 mL/kg). From this point on, the ambulation scores were measured for 60 min. The data are presented as mean ± SEM, n = 5 mice per group. Data were analyzed with one-way ANOVA and Dunnett’s post-hoc. 15: F(3,16) = 1.225, p = 0.333; 18: F(5,24) = 0.791, p = 0.567.\nas §1, §2\nThe locomotor activity was recorded individually for each animal in the OPTO-M3 locomotor activity cages described above. Each cage was surrounded with an array of photocell beams. […] Mice were placed separately into activity cages for an acclimatization period of 30 min, then were injected i.p. with compound 15 (0.5, 1, 3 mg/kg) compound 18 (0.05, 0.1, 0.5, 1, 3 mg/kg. After a further 30 min, they were injected with saline (10 mL/kg). From this point on, the ambulation scores were measured for 60 min."}, "Human Serotonin 5-HT6R [4]": {"biological_target": "T1, Human Serotonin 5-HT6R (Homo sapiens, UniProt P50406)", "T1 construct": "host or cells: 1321N1 (frozen recombinant cells)", "T1 sequence (P50406 whole entry)": "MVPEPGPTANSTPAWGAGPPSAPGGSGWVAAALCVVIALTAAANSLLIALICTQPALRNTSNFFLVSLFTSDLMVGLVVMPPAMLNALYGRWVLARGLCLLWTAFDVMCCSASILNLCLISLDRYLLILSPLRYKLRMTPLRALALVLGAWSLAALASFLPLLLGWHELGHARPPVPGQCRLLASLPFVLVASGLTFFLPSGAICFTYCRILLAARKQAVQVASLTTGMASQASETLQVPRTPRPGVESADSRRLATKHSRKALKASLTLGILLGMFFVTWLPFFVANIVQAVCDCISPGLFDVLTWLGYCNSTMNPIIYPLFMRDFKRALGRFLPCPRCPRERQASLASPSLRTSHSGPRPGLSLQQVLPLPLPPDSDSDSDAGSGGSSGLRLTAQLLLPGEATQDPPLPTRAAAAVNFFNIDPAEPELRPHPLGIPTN", "test": "5-HT6R functional assay, antagonistic mode (cAMP induced by 5-CT, 1321N1 cells)", "assay_type": "cell-based", "experimental": "(§3) The properties of compounds to inhibit cAMP production induced by a 5-HT6R agonist 5-CT (1000 nM) was evaluated. Compounds were tested in triplicate at eight concentrations (10^−11–10^−4 M). The level of cAMP was measured using frozen recombinant 1321N1 cells expressing the Human Serotonin 5-HT6R (PerkinElmer). Total cAMP was measured using the LANCE cAMP Detection Kit (PerkinElmer), according to the manufacturer’s instructions. For quantification of cAMP levels, 2000 cells/well ([…]) were incubated with a mixture of compounds ([…]) for 30 min at room temperature in a 384-well white opaque microtiter plate. After incubation, the reaction was stopped and cells were lysed by the addition of […] of working solution ([…] ULight-anti-cAMP) for 1 h at room temperature. Time-resolved fluorescence resonance energy transfer (TR-FRET) was detected by an Infinite M1000 Pro (Tecan) using instrument settings from the LANCE cAMP Detection Kit manual. […] The agonistic properties of compounds were determined with an analogous procedure, but without stimulation with 5-CT [10, 36]."}, "5-HT2AR": {"biological_target": "5-HT2AR (Homo sapiens, UniProt P28223)", "sequence (P28223 whole entry)": "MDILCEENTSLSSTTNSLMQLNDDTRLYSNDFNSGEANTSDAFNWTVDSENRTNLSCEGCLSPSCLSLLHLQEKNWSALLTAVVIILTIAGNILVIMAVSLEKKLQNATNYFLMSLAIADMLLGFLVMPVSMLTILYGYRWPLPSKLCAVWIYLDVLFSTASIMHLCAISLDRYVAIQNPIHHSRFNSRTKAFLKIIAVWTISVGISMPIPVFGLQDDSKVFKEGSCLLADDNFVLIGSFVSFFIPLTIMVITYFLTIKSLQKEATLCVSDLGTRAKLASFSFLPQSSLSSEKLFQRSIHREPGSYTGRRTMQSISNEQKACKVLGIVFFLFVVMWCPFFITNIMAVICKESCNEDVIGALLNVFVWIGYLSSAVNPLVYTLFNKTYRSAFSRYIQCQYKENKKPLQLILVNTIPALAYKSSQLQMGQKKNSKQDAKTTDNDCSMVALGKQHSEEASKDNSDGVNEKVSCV", "test": "Radioligand binding assay, [3H]-ketanserin displacement", "set-up": "host or cells: CHO-K1; membrane preparation", "details": "Table 1"}, "Human Serotonin 5-HT6R [5]": {"biological_target": "T1, Human Serotonin 5-HT6R", "test": "5-HT6R functional assay, agonistic mode (cAMP, 1321N1 cells)", "assay_type": "cell-based", "experimental": "as §3"}}, "note": "Read-outs that look alike come from different tables or passages of the source."}
{"compound": "Brc1ccc2c(CNCCc3c[nH]c4ccccc34)c[nH]c2c1", "note": "[Compound 15]", "values": [{"measurement": "Papp at 5 h, 200 µM", "setting": "in vitro", "value": "2.42 ± 0.92", "unit": "×10⁻⁶ cm/s"}, {"measurement": "Ki", "setting": "D2R; Ki D2, Figure 8", "value": 290, "unit": "nM"}, {"measurement": "Ki", "setting": "D2R; pKi D2, Table 1", "value": 288, "unit": "nM"}, {"measurement": "exacerbation of MK-801 hyperactivity", "setting": "Male CD1 mice [1]; 3 mg/kg", "value": "not statistically significant"}, {"measurement": "reversal of MK-801-elevated activity", "setting": "Male CD1 mice [1]", "value": "did not reverse the locomotor activity elevated by the administration of MK-801"}, {"measurement": "Metabolic Pathway, metabolite M1", "setting": "[2]", "value": "hydroxylation hydroxylation"}, {"measurement": "Metabolic Pathway, metabolite M2", "setting": "[2]", "value": "hydroxylation hydroxylation"}, {"measurement": "Ambulation Scores ± SEM", "setting": "Male CD1 mice [3]; 0.5 mg/kg", "value": "134.9 ± 11.13"}, {"measurement": "Ambulation Scores ± SEM", "setting": "Male CD1 mice [3]; 1 mg/kg", "value": "124.7 ± 21.75"}, {"measurement": "Ambulation Scores ± SEM", "setting": "Male CD1 mice [3]; 3 mg/kg", "value": "91.8 ± 24.61"}, {"measurement": "effect on spontaneous locomotor activity in words", "setting": "Male CD1 mice [3]", "value": "did not affect the locomotor activity of mice"}, {"measurement": "5-HT6R function in words (antagonism)", "setting": "Human Serotonin 5-HT6R [4]", "value": "antagonist"}, {"measurement": "Kb", "setting": "Human Serotonin 5-HT6R [4]; antagonistic mode, 5-CT 1000 nM, read-out: 5-HT6 Kb", "value": 131, "unit": "nM"}, {"measurement": "PAMPA Pe ± SD", "setting": "5 h, 200 µM, pH 7.4", "value": "2.42 10^−6 cm/s"}, {"measurement": "permeability in words", "setting": "PAMPA", "value": "rather low Pe value but still higher than norfloxacin"}, {"measurement": "Ki", "setting": "5-HT2AR; read-out: pKi 5-HT2A (converted)", "value": 4070, "unit": "nM"}]}
{"compound": "Brc1cccc2c(CNCCc3c[nH]c4ccccc34)c[nH]c12", "note": "[Compound 18]", "values": [{"measurement": "PAMPA Pe ± SD", "setting": "PAMPA permeability assay; 200 µM, PBS pH 7.4, 5 h, triplicate", "value": "3.90 10^−6 cm/s"}, {"measurement": "Papp at 5 h, 200 µM", "setting": "PAMPA permeability assay; PAMPA, pH 7.4", "value": "3.9 ± 0.56", "unit": "×10⁻⁶ cm/s"}, {"measurement": "permeability in words", "setting": "PAMPA permeability assay; compared to caffeine and norfloxacin", "value": "rather low Pe value but still higher than norfloxacin"}, {"measurement": "5-HT6R function in words (agonism)", "setting": "Human Serotonin 5-HT6R [5]", "value": "agonist"}, {"measurement": "EC50", "setting": "Human Serotonin 5-HT6R [5]", "value": 77, "unit": "nM"}, {"measurement": "Ki", "setting": "D2R; Ki D2, Figure 8", "value": 55, "unit": "nM"}, {"measurement": "Ki", "setting": "D2R; pKi D2, Table 1", "value": 55, "unit": "nM"}, {"measurement": "reversal of MK-801-elevated activity", "setting": "Male CD1 mice [1]", "value": "did not reverse the locomotor activity elevated by the administration of MK-801"}, {"measurement": "Metabolic Pathway, metabolite M1", "setting": "[2]", "value": "hydroxylation hydroxylation"}, {"measurement": "Metabolic Pathway, metabolite M2", "setting": "[2]", "value": "hydroxylation hydroxylation"}, {"measurement": "Ambulation Scores ± SEM", "setting": "Male CD1 mice [3]; 0.05 mg/kg", "value": "113.6 ± 34.00"}, {"measurement": "Ambulation Scores ± SEM", "setting": "Male CD1 mice [3]; 0.1 mg/kg", "value": "131.8 ± 19.50"}, {"measurement": "Ambulation Scores ± SEM", "setting": "Male CD1 mice [3]; 0.5 mg/kg", "value": "116.7 ± 13.23"}, {"measurement": "Ambulation Scores ± SEM", "setting": "Male CD1 mice [3]; 1 mg/kg", "value": "85.31 ± 15.86"}, {"measurement": "Ambulation Scores ± SEM", "setting": "Male CD1 mice [3]; 3 mg/kg", "value": "87.79 ± 20.89"}, {"measurement": "effect on spontaneous locomotor activity in words", "setting": "Male CD1 mice [3]", "value": "did not influence the spontaneous locomotor activity of mice"}, {"measurement": "Ki", "setting": "5-HT2AR; pKi 5-HT2A", "value": 3980, "unit": "nM"}]}
